# Test results from patent publication US20230295133A1, “PROCESS FOR PREPARING A COMPOUND USEFUL TO TREAT MYCOSES” (PULMOCIDE LIMITED, priority 2014, published 2023).
# Columns and labels:
# [1] = Cell viability: resazurin assay; assay type: cell-based, human; conditions: human, BEAS2B cells; n = 3-5
# Procedure: BEAS2B cells were seeded in 384-well plates (100 µL; 3000 / well /; BD Falcon, Catalogue No 353962) in RPMI-LHC8 (RPMI-1640 and LHC8 media combined in equal proportions) one day before experimentation. For cell-free control wells, RPMI-LHC8 (100 µL) was added. Test compounds (0.5 µL of a DMSO solution) were added to give a final DMSO concentration of 0.5% using an Integra VIAFLO 96 (Integra, Zizers, Switzerland). BEAS2B cells were incubated with each test compound for 1 day (37° C. / 5% CO2 in RPMI-LHC8). After addition of resazurin stock solution (5 µL, 0.04%) the plates were incubated for a further 4 hr (37° C. / 5% CO2). The fluorescence of each well at 545 nm (excitation) and 590 nm (emission) was determined using a multi-scanner (Clariostar: BMG Labtech). The percentage loss of cell viability was calculated for each well relative to vehicle (0.5% DMSO) treatment. Where appropriate, a CC50 value was calculated from the concentration-response curve generated from the concentration-response curve for each test compound.
# [2] = test system: Aspergillus fumigatus L98H (TR34/L98H); assay: Broth microdilution assay (modified EUCAST); assay type: cell-based; conditions: Aspergillus fumigatus, read-out: MIC75 against Aspergillus fumigatus isolate L98H
# Procedure: (§1) This assay was conducted using a modified method published by EUCAST (Rodriguez-Tudela et al., 2008). Spores of aspergillus fumigatus (NCPF2010, NCPF7010 (Methionine 220 mutation), NCPF7099 (Glycine G54 mutation) from Public Health England, Wiltshire; TR34/L98H mutants from St Louis Hospital, Paris, France) were cultured in Sabouraud dextrose agar for 3 days. A stock spore suspension was prepared from a Sabouraud dextrose agar culture by washing with PBS-tween (10 mL; PBS containing 0.05% Tween-20, 100 U/mL Penicillin and 100 U/mL Streptomycin). The spore count was assessed using a Neubauer haemocytometer and then adjusted to 10^6 spores/mL with PBS. A working suspension of spores (2 × 10^5 spores/mL) was prepared in filter sterilised, BSA MOPS RPMI-1640 (50 mL; RPMI-1640 containing 2 mM L-glutamine, 0.5% BSA, 2% glucose, 0.165 M MOPS, buffered to pH 7 with NaOH). For the assay, BSA MOPS RPMI-1640 (50 µL/well) was added throughout the 384-well plate (Catalogue number 353962, BD Falcon, Oxford, UK) first. Test compounds (0.5 µL DMSO solution) were then added in quadruplicate using an Integra VIAFLO 96 (Integra, Zizers, Switzerland), and mixed well using a plate mixer. Subsequently 50 µL of the working spore suspension prepared above was added to all wells except non-spore control wells. For non-spore control wells, BSA MOPS-RPMI solution (50 µL/well) was added instead. The plate was covered with a plastic lid, and incubated (35° C. with ambient air) for 48 hr. The OD of each well at 530 nm was determined using a multi-scanner (Clariostar: BMG, Buckinghamshire, UK). The percentage inhibition for each well was calculated and the MIC50, MIC75 and MIC90 values were calculated from the concentration-response curve generated for each test compound.
# [3] = test system: Aspergillus fumigatus NCPF2010; assay: Broth microdilution assay (modified EUCAST); assay type: cell-based; conditions: Aspergillus fumigatus, NCPF2010, read-out: MIC75 against Aspergillus fumigatus isolate NCPF2010
# Procedure: as §1
# [4] = test system: Aspergillus fumigatus NCPF7099; assay: Broth microdilution assay (modified EUCAST); assay type: cell-based; conditions: Aspergillus fumigatus, NCPF7099, n = 3, read-out: MIC75 against Aspergillus fumigatus isolate NCPF7099
# Procedure: as §1
# [5] = test system: Aspergillus fumigatus NCPF7100; assay: Broth microdilution assay (modified EUCAST); assay type: cell-based; conditions: Aspergillus fumigatus, NCPF7100, read-out: MIC75 against Aspergillus fumigatus isolate NCPF7100
# [6] = test system: aspergillus fumigatus infection of BEAS2B cells; assay: Aspergillus fumigatus infection of bronchial epithelial cells (GM in supernatant); assay type: cell-based; conditions: bronchial epithelial cells infected with Aspergillus fumigatus; read-out: MIC50 Infection of BEAS2B cells
# Procedure: BEAS2B cells were seeded in 96-well plates (100 µL; 30,000 cells / well; Catalogue No 3596, Sigma Aldrich, Dorset, UK) in 10% FBS RPMI-1640 and were then incubated (37° C., 5% CO2) for one day before experimentation. Test compounds (0.5 µL DMSO solution) or vehicle (DMSO) were added to each well to give a final DMSO concentration of 0.5%. BEAS2B cells were incubated with test compounds for 1 hr (35° C., 5% CO2) before infection with aspergillus fumigatus (20 µL; Public Health England) conidia suspension (0.5×10^5 /ml in 10% FBS RPMI-1640). The plate was incubated for 24 hr (35° C., 5% CO2). Supernatant (50 µL) was collected and transferred to a PCR plate (Catalogue No L1402-9700, Starlab, Milton Keynes, UK), which was frozen (-20° C.) until use. After thawing, supernatant (5 µL) was diluted 1:20 by adding R7-PBS solution (95 µL; 1:4 R7 to PBS; Bio-Rad Laboratories, Redmond, WA, USA). GM levels in these samples (50 µL) were measured using Platelia GM-EIA kits (Bio-Rad Laboratories, Redmond, WA, USA). The percentage inhibition for each well was calculated and the IC50 value was calculated from the concentration-response curve generated for each test compound.
SMILES,CC50 at 1 day [1] [µM],MIC [2] [µM],MIC [3] [µM],MIC [4] [µM],MIC [5] [µM],MIC50 [6] [µM]
"Cc1cc(N2CCN(c3ccc(C(=O)Nc4ccc(F)cc4)cc3)CC2)c(C)cc1OC[C@@H]1CO[C@@](Cn2cncn2)(c2ccc(F)cc2F)C1 [Example 5, 4-(4-(4-(((3R,5R)-5-((1H-1,2,4-Triazol-1-yl)Methyl)-5-(2,4-Difluorophenyl) Tetrahydrofuran-3-yl)Methoxy)-2,5-Dimethylphenyl)Piperazin-1-yl)-N-(4-Fluorophenyl) Benzamide]",> 14.4,0.162,0.0133,0.157,0.0966,0.123
"N#Cc1ccc(NC(=O)c2ccc(N3CCN(c4ccc(OCC5CO[C@@](Cn6cncn6)(c6ccc(F)cc6F)C5)c(Cl)c4)CC3)cc2)cc1 (stereo in doubt) [Example 10, 4-(4-(4-(((3R,5R)-5-((1H-1,2,4-triazol-1-yl)methyl)-5-(2,4-difluorophenyl)tetrahydrofuran-3-yl)methoxy)-3-chlorophenyl)piperazin-1-yl)-N-(4-cyanophenyl)benzamide]",> 14.1,0.0812,0.022,0.00996,0.0295,0.0145
"Cc1cc(N2CCN(c3ccc(C(=O)Nc4c(F)cc(F)cc4F)cc3)CC2)ccc1OC[C@@H]1CO[C@@](Cn2cncn2)(c2ccc(F)cc2F)C1 [Example 31, 4-(4-(4-(((3R, 5R)-5-((1H-1,2,4-triazol-1-yl)methyl)-5-(2,4-difluorophenyl)tetrahydrofuran-3-yl)methoxy)3-methylphenyl)piperazin-1-yl)-N-(2,4,6-trifluorophenyl)benzamide]",> 13.9,0.163,0.0439,0.0109,0.0679,0.0107
"Cc1cc(N2CCN(c3ccc(C(=O)Nc4ccc(OC(F)F)c(F)c4)cc3)CC2)ccc1OC[C@@H]1CO[C@@](Cn2cncn2)(c2ccc(F)cc2F)C1 [Example 25, 4-(4-(4-(((3R,5R)-5-((1H-1,2,4-triazol-1-yl)methyl)-5-(2,4-difluorophenyl)tetrahydrofuran-3-yl)methoxy)-3-methylphenyl)piperazin-1-yl)-N-(4-(difluoromethoxy)-3-fluorophenyl) benzamide]",> 13.4,0.0659,0.0845,0.0251,0.0476,0.23
"Cc1cc(N2CCN(c3ccc(C(=O)Nc4ccc(F)cc4)c(C)c3)CC2)ccc1OC[C@@H]1CO[C@@](Cn2cncn2)(c2ccc(F)cc2F)C1 [Example 33, 4-(4-(4-(((3R, 5R)-5-((1H-1,2,4-triazol-1-yl)methyl)-5-(2,4-difluorophenyl)tetrahydrofuran-3-yl)methoxy)-3-methylphenyl)piperazin-1-yl)-N-(4-fluorophenyl)-2-methylbenzamide]",> 14.4,0.0679,0.0135,0.0489,0.0236,0.0435
"Cc1cc(N2CCN(c3ccc(C(=O)Nc4ccc(F)cc4)cc3C)CC2)ccc1OC[C@@H]1CO[C@@](Cn2cncn2)(c2ccc(F)cc2F)C1 [Example 32, 4-(4-(4-(((3R,5R)-5-((1H-1,2,4-triazol-1-yl)methyl)-5-(2,4-difluorophenyl)tetrahydrofuran-3-yl)methoxy)-3-methylphenyl)piperazin-1-yl)-N-(4-fluorophenyl)-3-methylbenzamide]",> 14.4,0.0695,0.0697,0.0481,0.0609,0.0261
"Cc1cc(N2CCN(c3ccc(C(=O)Nc4cc(F)ccc4F)cc3)CC2)ccc1OC[C@@H]1CO[C@@](Cn2cncn2)(c2ccc(F)cc2F)C1 [Example 26, 4-(4-(4-(((3R, 5R)-5-((1H-1,2,4-triazol-1-yl)methyl)-5-(2,4-difluorophenyl)tetrahydrofuran-3-yl)methoxy)-3-methylphenyl)piperazin-1-yl)-N-(2,5-difluorophenyl)benzamide]",> 14.3,0.126,0.0311,0.131,0.091,> 1.43
"Cc1cc(N2CCN(c3ccc(C(=O)Nc4ccc(Cl)cc4F)cc3)CC2)ccc1OC[C@@H]1CO[C@@](Cn2cncn2)(c2ccc(F)cc2F)C1 [Example 29, 4-(4-(4-(((3R, 5R)-5-((1H-1,2,4-triazol-1-yl)methyl)-5-(2,4-difluorophenyl)tetrahydrofuran-3-yl)methoxy)-3-methylphenyl)piperazin-1-yl)-N-(4-chloro-2-fluorophenyl)benzamide]",> 13.9,0.12,0.0285,0.037,0.0538,0.0145
"COc1cc(C(=O)Nc2ccc(F)cc2)ccc1N1CCN(c2ccc(OC[C@@H]3CO[C@@](Cn4cncn4)(c4ccc(F)cc4F)C3)c(C)c2)CC1 [Example 34, 4-(4-(4-(((3R, 5R)-5-((1H-1,2,4-triazol-1-yl)methyl)-5-(2,4-difluorophenyl)tetrahydrofuran-3-yl)methoxy)3-methylphenyl)piperazin-1-yl)-N-(4-fluorophenyl)-3-methoxybenzamide]",> 14,0.0739,0.0446,0.029,0.0148,0.0219
Cc1cc(N2CCN(c3ccc(C(=O)Nc4ccc(S(=O)(=O)N(C)C)cc4)cc3)CC2)ccc1OC[C@@H]1CO[C@@](Cn2cncn2)(c2ccc(F)cc2F)C1 [Example 21],> 13,0.0517,0.0374,0.0211,0.0317,0.00386
"Cc1cc(N2CCN(c3ccc(C(=O)Nc4cc(C#N)ccn4)cc3)CC2)ccc1OC[C@@H]1CO[C@@](Cn2cncn2)(c2ccc(F)cc2F)C1 [Example 37, 4-(4-(4-(((3R,5R)-5-((1H-1,2,4-triazol-1-yl)methyl)-5-(2,4-difluorophenyl)tetrahydrofuran-3-yl)methoxy)-3-methylphenyl)piperazin-1-yl)-N-(4-cyanopyridin-2-yl)benzamide]",> 14.5,0.194,0.0284,0.0246,0.022,0.0188
